Here are results for 3 compounds from patent US9611248B2, “Chemical compounds” (Syngenta Participations AG, priority 2013, dated 2017).

In this assay the test system is a variety of test species. Briefly: Post-emergence herbicidal activity. Type of assay: in vivo. Also noted: key to ABUTH (Abutilon theophrasti) damage score / AMARE (Amaranthus retroflexus) damage score / ALOMY (Alopecurus myosuroides) damage score / ECHCG (Echinochloa crus-galli) damage score / ZEAMX (Zea mays) damage score / SOLNI (Solanum nigrum) damage score: 0 = no damage to plant, 5 = total damage to plant. Particulars: rate 1000 g/ha, evaluated after 13 days. An outline of the steps: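 Plants grown for 8 days in pots were sprayed post-emergence with compound in acetone/water (50:50) containing 0.5% Tween 20. They were kept in a glasshouse at 24/16 °C day/night, 14 h light, 65% humidity, watered twice daily. Damage was scored after 13 days (0 none to 5 total).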
For the compound `CCCC1=C(Cl)C(O)N(c2cc(C(C)(C)C#N)ncn2)C1=O` (stereo not drawn) [CA4], the “ABUTH (Abutilon theophrasti) damage score” value (“ABUTH” for short) is listed as 2, the “ALOMY (Alopecurus myosuroides) damage score” value (from here on “ALOMY”) was found to be 1, the “AMARE (Amaranthus retroflexus) damage score” value (from here on “AMARE”) was determined as 1 and the “ECHCG (Echinochloa crus-galli) damage score” value (from here on “ECHCG”) was 0. Besides, the “SETFA (Setaria faberi) damage score” value turned out to be 1 and the “ZEAMX (Zea mays) damage score” value stood at 1.

Consider `CC1=C(Br)C(O)N(c2cc(C(F)(F)F)ncn2)C1=O` (stereo not drawn) [CB1], for which the “ABUTH” value was found to be 1, the “ALOMY” value turned out to be 1, the “AMARE” value worked out at 1 and the “ECHCG” value was 1. In addition, the “SETFA (Setaria faberi) damage score” value came out at 0 and the “ZEAMX (Zea mays) damage score” value came to 1.

Regarding `COC1=C(C)C(=O)N(c2cc(N3CCCCC3)ncn2)C1O` (stereo not drawn) [CD1, 2-hydroxy-3-methoxy-4-methyl-1-[6-(1-piperidyl)pyrimidin-4-yl]-2H-pyrrol-5-one], the “ABUTH” value was found to be 0, the “ALOMY” value is 0, the “AMARE” value was determined as 0 and the “ECHCG” value was 0. In addition, the “SETFA (Setaria faberi) damage score” value is on record as 0 and the “ZEAMX (Zea mays) damage score” value is given as 0.
